How the values were obtained:
[1] = tested on: adrenergic receptor signaling; assay: intracellular cAMP levels in human liver organoids; format: cell-based; settings: compared to untreated organoids
Procedure: The sympathetic neurons, or sympathetic nerves, in human liver organoids were ablated by 6-hydroxydopamine (6-OHDA), a sympathetic-specific toxin, and the intracellular levels of cyclic AMP (CAMP), a second messenger of adrenergic receptors in human liver organoids, were measured.

[2] = tested on: hepatocytes of human liver organoids; assay: TG accumulation in hepatocytes of organoids, live cell imaging with BODIPY 493/503; format: cell-based
Procedure: Next, it was determined whether sympathetic neurons, or sympathetic nerves, in human liver organoids contribute to lipid accumulation in hepatocytes. After treatment with 6-OHDA, triglyceride (TG) in hepatocytes of the organoids were measured by live cell imaging using BODIPY 493/503, a fluorescent probe for TG, and the accumulation of TG in hepatocytes of 6-OHDA-treated and untreated organoids was compared. TG accumulation in hepatocytes of 6-OHDA-treated organoids was about twice that of untreated organoids (FIG. 8A). In addition, TG accumulation in hepatocytes of organoids treated with 6-OHDA and then exposed to oleic acid (OA) for 3 days was about 3-fold higher than that of OA-only treated organoids (FIG. 8A).

human liver organoids = assay: RT-qPCR of gluconeogenesis, lipogenesis and cytokine genes in liver organoids; format: cell-based
[3] = tested on: human liver organoids (HLOs); assay: immunostaining and cell volume analysis of TUBB3+ and TH+ nerves in HLOs; format: cell-based
Procedure: Single cell RNA sequencing (scRNAseq) and real-time PCR quantification of gene expression were performed in day 20 (D20) liver organoids, and it was noted that the neuron attractive factor BDNF was highly expressed in hepatic stellate-like cells of the liver organoids. (FIG. 13). HLOs were treated with and without 1 μM BDNF inhibitor ANA12 for 5 days from day 15 (D15) to day 20 (D20) of differentiation induction. […] (FIG. 14). […] HLOs were treated with and without 100 nM of BDNF for 13 days from day 15 (D15) to day 28 (D28) of differentiation induction.

[4] = tested on: human liver organoids (HLOs); assay: generation of neural crest cells and sympathetic neurons in HLOs (real-time PCR, whole mount immunostaining, flow cytometry); format: cell-based
foregut spheroids = assay: real-time PCR of neural crest markers in foregut spheroids; format: cell-based, human; settings: 250 nM, 500 nM, or 1000 nM for 72 hours D3 to D6, PCR on D6
Procedure: (§1) Foregut spheroids were treated with 250 nM, 500 nM, or 1000 nM of the BMP inhibitor LDN193189 for 72 hours from day 3 (D3) to day 6 (D6) of differentiation, and real-time PCR quantification was performed on D6. […] (FIG. 12). […] (FIG. 15A).

[5] = tested on: human liver organoids (HLOs); assay: generation of neural crest cells and sympathetic neurons in HLOs (real-time PCR, whole mount immunostaining, flow cytometry); format: cell-based; remark: listed apart in the source
Procedure: as §1

[6] = tested on: human liver organoids (HLOs); assay: gene expression of liver markers / liver induction in HLOs; format: cell-based
[7] = tested on: human liver organoids (HLOs); assay: albumin (ALB) secretion of HLOs; format: cell-based
[8] = tested on: HLO derived from two different iPS lines; assay: amount of TH+ cells in OA-treated HLO (NASH model); format: cell-based, human; settings: OA treatment
Excerpt: FIG. 25 depicts the effect of OA treatment in increasing the amount of TH+ cells in HLO derived from two different iPS lines, showing an increase in innervation in a NASH model.
• 1. The distribution of sympathetic nerves projected to the liver is very different in humans as compared to experimental model animals, such as mice and rats. The presently described sympathetic neuron-containing human liver organoid model is expected to elucidate the distinctive mechanisms and timing of intrahepatic sympathetic projections during human liver development. • 2. Although it has been reported that sympathetic nerves contribute to the development and function of multiple organs, little is known regarding sympathetic nerves in the liver. This model leads to the identification of sympathetic effects on human liver development and the elucidation of their mechanisms of action. The model can also enable construction of enhanced (or mature) liver organoids by artificially regulating sympathetic nerve activity. • 3. The sympathetic nervous system has been reported to regulate gluconeogenesis in humans, but the mechanism by which it is promoted is unknown. Using this model, the mechanisms of human hepatic sympathetic innervation in gluconeogenesis can be elucidated. • 4. […] This model will allow us to identify the role of sympathetic nerves and their mechanisms in liver diseases. […]

[9] = RT-qPCR, 6-OHDA treated organoids vs control
[10] = steatosis conditions (oleic acid), relative to those not treated with 6-OHDA
[11] = SB alone, 10 μM, days 3-6, listed as SB

Molecule: NCCc1cc(O)c(O)cc1O [6-OHDA, 6-hydroxydopamine]
- concentration of cAMP [1]: significantly decreased
- TG accumulation in hepatocytes ([2]; 6-OHDA then oleic acid (OA) for 3 days, vs OA-only treated organoids): about 3 fold
- TG accumulation in hepatocytes ([2]; 6-OHDA-treated vs untreated organoids): about twice
- expression of CD36 (human liver organoids; [9]): increased expression
- expression of G6PC (human liver organoids; [9]): increased expression
- expression of PCK1 (human liver organoids; [9]): increased expression
- expression of SCD (human liver organoids; [9]): increased expression
- expression of CXCL8 (IL8) (human liver organoids; [10]): increased expression
- expression of TNF (human liver organoids; [10]): increased expression

Molecule: O=C(Nc1ccccc1C(=O)NC1CCCCNC1=O)c1cc2ccccc2s1 (centres unmarked) [ANA12]
- TH+ nerve production and elongation of nerves ([3]; 1 μM for 5 days, D15 to D20): suppressed TH+ nerve production and elongation of nerves

Molecule: Cc1c[nH]c(-c2cnc(NCCNc3ccc(C#N)cn3)nc2-c2ccc(Cl)cc2Cl)n1 [CHIR]
- TUBB3+ neurons and SOX10 neural crest cells compared to LDN alone ([4]; 3 μM CHIR instead of 2 μM, with 250 nM LDN, days 3-6): more and More

Molecule: c1ccc2c(-c3cnn4cc(-c5ccc(N6CCNCC6)cc5)cnc34)ccnc2c1 [LDN193189]
- expression of neural crest marker FOXD3 (foregut spheroids): increased expression
- expression of neural crest marker NGFR (foregut spheroids): increased expression
- expression of neural crest marker SOX10 (foregut spheroids): increased expression
- neural crest cells and TUBB3/TH+ neurons detected ([5]; 250 nM, days 3-6): high frequency
- induction of neural crest cells and TH/TUBB+ sympathetic neurons ([5]; 250 nM, days 3 to 6): optimal concentrations
- induction of neural crest cells and TH/TUBB+ sympathetic neurons ([5]; 500 nM, days 3 to 6): optimal concentrations
- TH/TUBB+ sympathetic neurons ([5]; 1000 nM, days 3 to 6): reduced
- production of neural crest cells ([5]; 1000 nM, days 3 to 6): reduced
- creation of sympathetic neurons, or sympathetic nerves ([5]; LDN 250 (nM)): reproducibly
- gene expression level of liver marker HNF4A ([6]; 250 nM, 500 nM, 1000 nM): decrease in a LDN concentration-dependent manner
- gene expression level of liver marker albumin (ALB) ([6]; 250 nM, 500 nM, 1000 nM): decrease in a LDN concentration-dependent manner
- gene expression of liver marker ALB ([6]; 250 nM, days 3-6): reduced
- gene expression of liver marker HNF4A ([6]; 250 nM, days 3-6): reduced
- induction to the liver ([6]; timing of addition changed from Day 3-6 to Day 6-10): improves induction to the liver
- ALB secretion lower ([7]; 250 nM LDN193189 alone or in combination with 10 μM SB431542, days 6-10): about ⅓
- ALB secretion ([7]; 250 nM, days 3-6): reduced
- albumin secretion compared to existing HLOs ([7]; 250 nM, days 3-6): 30-40 fold lower
- reduction of albumin secretion compared to conventional HLOs ([7]; addition Day 6-10): a third
- detection of neurons ([4]; 250 nM LDN193189 alone or in combination with 10 μM SB431542, days 6-10, rate varies between batches): sometimes detected
- expression of autonomic marker ASCL1 ([4]; HLOs on day 20, treated days 3-6, real-time PCR): increased
- frequency of sympathetic generation ([4]; addition Day 6-10): varies between batches

Molecule: CCCCCCCC/C=C\CCCCCCCC(=O)O [OA, oleic acid]
- amount of TH+ cells in HLO [8]: increasing

Molecule: NC(=O)c1ccc(-c2nc(-c3ccc4c(c3)OCO4)c(-c3ccccn3)[nH]2)cc1 [SB431542]
- albumin secretion ([7]; SB431542 (10 μM) in addition to LDN (250 nM), days 3-6): minimal
- neural crest cells and TUBB3/TH+ neurons detected ([4]; 10 μM SB431542 with 250 nM LDN193189, days 3-6): detected earlier (day 15) and more frequently than in the other conditions
- TUBB+/TH+ sympathetic innervation ([4]; SB431542 in addition to LDN, Day 3-Day 6, LDN alone had not yet developed innervation on day 15): extensive TUBB+/TH+ sympathetic innervation was formed around day 15
- TH signal ([4]; SB alone, 10 μM, days 3-6): no TH signal was observed
- TUBB3-positive cells / TUBB3+ innervation ([4]; SB alone, 10 μM, days 3-6): appeared
- expression of the parasympathetic marker CHAT ([4]; SB alone, 10 μM, days 3-6): detected in some TUBB3+ nerves
- TUBB3-positive cells / TUBB3+ innervation [4, 11]: observed
- expression of the parasympathetic marker CHAT [4, 11]: detected in some cells

Molecule: CC(C)NCC(O)c1ccc(O)c(O)c1 (centres unmarked) [isoproterenol]
- concentration of cAMP [1]: increased

Molecule: NC[C@H](O)c1ccc(O)c(O)c1 [noradrenaline]
- concentration of cAMP [1]: increased

B1: BDNF: brain derived neurotrophic factor, neuron attractive factor (protein, UniProt P23560 19-247, looked up)
Neurotrophic factor BDNF …: APMKEANIRGQGGLAYPGVRTHGTLESVNGPKAGSRGLTSLADTFEHVIEELLDEDQKVRPNEENNKDADLYTSRVMLSSQVPLEPPLLFLLEEYKNYLDAANMSMRVRRHSDPARRGELSVCDSISEWVTAADKKTAVDMSGGTVTVLEKVPVSKGQLKQYFYETKCNPMGYTKEGCRGIDKRHWNSQCRTTQSYVRALTMDSKKRIGWRFIRIDTSCVCTLTIKRGR
- nerves (TUBB3 immunostaining) ([3]; 100 nM for 13 days, D15 to D28): nerves tend to increase and elongate
